Reference: PubChem BioAssay (NCI)
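Following 48 hours of exposure in 96-well plates, responses at five concentrations were used to interpolate endpoints linearly. GI50: concentration for 50% inhibition of growth. TGI is the concentration that stops growth completely.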

Experiments:
Experiment in all cases: inhibition of tumour cell growth, NCI panel, 48 h
NCI-H460 lung = tested on: NCI-H460 lung
SK-MEL-2 melanoma = tested on: SK-MEL-2 melanoma
CCRF-CEM leukemia = tested on: CCRF-CEM leukemia
OVCAR-3 ovarian = tested on: OVCAR-3 ovarian
PC-3 prostate = tested on: PC-3 prostate
DU-145 prostate = tested on: DU-145 prostate
OVCAR-8 ovarian = tested on: OVCAR-8 ovarian
786-0 renal = tested on: 786-0 renal
MCF7 breast = tested on: MCF7 breast
COLO 205 colon = tested on: COLO 205 colon
SW-620 colon = tested on: SW-620 colon
OVCAR-5 ovarian = tested on: OVCAR-5 ovarian
HL-60(TB) leukemia = tested on: HL-60(TB) leukemia
NCI-H23 lung = tested on: NCI-H23 lung
TK-10 renal = tested on: TK-10 renal
MDA-MB-231 breast = tested on: MDA-MB-231 breast
SF-295 CNS = tested on: SF-295 CNS
HT29 colon = tested on: HT29 colon
IGROV1 ovarian = tested on: IGROV1 ovarian
KM12 colon = tested on: KM12 colon
SK-MEL-28 melanoma = tested on: SK-MEL-28 melanoma
EKVX NSCLC = tested on: EKVX NSCLC
SK-OV-3 ovarian = tested on: SK-OV-3 ovarian
HCT-116 colon = tested on: HCT-116 colon
SF-268 CNS = tested on: SF-268 CNS
MALME-3M melanoma = tested on: MALME-3M melanoma
ACHN renal = tested on: ACHN renal
U251 CNS = tested on: U251 CNS
OVCAR-4 ovarian = tested on: OVCAR-4 ovarian
HCT-15 colon = tested on: HCT-15 colon
RXF 393 renal = tested on: RXF 393 renal
SF-539 CNS = tested on: SF-539 CNS
SNB-19 CNS = tested on: SNB-19 CNS
A498 renal = tested on: A498 renal
SK-MEL-5 melanoma = tested on: SK-MEL-5 melanoma
HOP-62 NSCLC = tested on: HOP-62 NSCLC
NCI-H226 lung = tested on: NCI-H226 lung
MDA-MB-435 = tested on: MDA-MB-435
A549 NSCLC = tested on: A549 NSCLC
HCC-2998 colon = tested on: HCC-2998 colon
RPMI-8226 leukemia = tested on: RPMI-8226 leukemia
HS 578T breast = tested on: HS 578T breast
SNB-75 CNS = tested on: SNB-75 CNS
M14 melanoma = tested on: M14 melanoma
NCI/ADR-RES ovarian = tested on: NCI/ADR-RES ovarian
LOX IMVI melanoma = tested on: LOX IMVI melanoma
CAKI-1 renal = tested on: CAKI-1 renal
SN12C renal = tested on: SN12C renal
UACC-62 melanoma = tested on: UACC-62 melanoma
UO-31 renal = tested on: UO-31 renal
MOLT-4 leukemia = tested on: MOLT-4 leukemia
NCI-H522 lung = tested on: NCI-H522 lung
BT-549 breast = tested on: BT-549 breast
K-562 leukemia = tested on: K-562 leukemia
UACC-257 melanoma = tested on: UACC-257 melanoma
T-47D breast = tested on: T-47D breast
HOP-92 NSCLC = tested on: HOP-92 NSCLC

In the case of `O=C1c2ccccc2-c2c1c1ccccc1c(=O)n2CCCNCCCn1ccnc1`, the GI50 (NCI-H460 lung) is reported as 1270 nM, the TGI (NCI-H460 lung) is reported as 43.1 µM and the GI50 (SK-MEL-2 melanoma) is reported as 2560 nM. For the same compound, the TGI (SK-MEL-2 melanoma) was 8.17 µM, the GI50 (CCRF-CEM leukemia) was 246 nM and the TGI (CCRF-CEM leukemia) was 1710 nM. The GI50 (OVCAR-3 ovarian) was 1630 nM, the TGI (OVCAR-3 ovarian) was 6.48 µM and the GI50 (PC-3 prostate) was 1580 nM. The TGI (PC-3 prostate) was 9.75 µM, the GI50 (DU-145 prostate) was 318 nM and the TGI (DU-145 prostate) was 2070 nM. It also gave a GI50 (OVCAR-8 ovarian) of 2440 nM, a TGI (OVCAR-8 ovarian) of over 37.3 µM and a GI50 (786-0 renal) of 352 nM. The TGI (786-0 renal) was 2240 nM, the GI50 (MCF7 breast) was 772 nM and the TGI (MCF7 breast) was 12.7 µM. The GI50 (COLO 205 colon) was 2130 nM, the TGI (COLO 205 colon) was 13.2 µM and the GI50 (SW-620 colon) was 240 nM. It also gave a TGI (SW-620 colon) of 1820 nM, a GI50 (OVCAR-5 ovarian) of 1550 nM and a TGI (OVCAR-5 ovarian) of 4.93 µM. For the same compound, the GI50 (HL-60(TB) leukemia) was 653 nM, the TGI (HL-60(TB) leukemia) was 5.01 µM and the GI50 (NCI-H23 lung) was 411 nM. The TGI (NCI-H23 lung) was 1530 nM, the GI50 (TK-10 renal) was 1890 nM and the TGI (TK-10 renal) was 9.73 µM. It also gave a GI50 (MDA-MB-231 breast) of 2680 nM, a TGI (MDA-MB-231 breast) of 7.36 µM and a GI50 (SF-295 CNS) of 419 nM. It also gave a TGI (SF-295 CNS) of 1990 nM, a GI50 (HT29 colon) of 1210 nM and a TGI (HT29 colon) of over 33.4 µM. For the same compound, the GI50 (IGROV1 ovarian) was 442 nM, the GI50 (KM12 colon) was 593 nM and the TGI (KM12 colon) was 2410 nM. It also gave a GI50 (SK-MEL-28 melanoma) of 2940 nM, a TGI (SK-MEL-28 melanoma) of 8.92 µM and a GI50 (EKVX NSCLC) of 4.75 µM. It also gave a TGI (EKVX NSCLC) of 12.2 µM, a GI50 (SK-OV-3 ovarian) of 3.16 µM and a TGI (SK-OV-3 ovarian) of 17.7 µM. The GI50 (HCT-116 colon) was 598 nM, the TGI (HCT-116 colon) was 2010 nM and the GI50 (SF-268 CNS) was 3.12 µM. The TGI (SF-268 CNS) was 23.2 µM, the GI50 (MALME-3M melanoma) was 3.33 µM and the TGI (MALME-3M melanoma) was 13.4 µM. The GI50 (ACHN renal) was 252 nM, the TGI (ACHN renal) was 879 nM and the GI50 (U251 CNS) was 285 nM. It also gave a TGI (U251 CNS) of 1420 nM, a GI50 (OVCAR-4 ovarian) of 6.34 µM and a TGI (OVCAR-4 ovarian) of 28.1 µM. The GI50 (HCT-15 colon) was 440 nM, the TGI (HCT-15 colon) was 10.1 µM and the GI50 (RXF 393 renal) was 1480 nM. It also gave a TGI (RXF 393 renal) of 4.31 µM, a GI50 (SF-539 CNS) of 908 nM and a TGI (SF-539 CNS) of 2480 nM. The GI50 (SNB-19 CNS) was 1470 nM, the TGI (SNB-19 CNS) was 13.1 µM and the GI50 (A498 renal) was 2050 nM. For the same compound, the TGI (A498 renal) was 7.83 µM, the GI50 (SK-MEL-5 melanoma) was 379 nM and the TGI (SK-MEL-5 melanoma) was 1680 nM. It also gave a GI50 (HOP-62 NSCLC) of 290 nM, a TGI (HOP-62 NSCLC) of 1130 nM and a GI50 (NCI-H226 lung) of 186 nM. For the same compound, the TGI (NCI-H226 lung) was 436 nM, the GI50 (MDA-MB-435) was 1720 nM and the TGI (MDA-MB-435) was 5.51 µM. The GI50 (A549 NSCLC) was 1020 nM, the TGI (A549 NSCLC) was 20.1 µM and the GI50 (HCC-2998 colon) was 894 nM. For the same compound, the TGI (HCC-2998 colon) was 2380 nM, the GI50 (RPMI-8226 leukemia) was 195 nM and the TGI (RPMI-8226 leukemia) was 1020 nM. It also gave a GI50 (HS 578T breast) of 545 nM, a TGI (HS 578T breast) of 5 µM and a GI50 (SNB-75 CNS) of 2610 nM. For the same compound, the TGI (SNB-75 CNS) was 9.84 µM, the GI50 (M14 melanoma) was 510 nM and the TGI (M14 melanoma) was 1130 nM. It also gave a GI50 (NCI/ADR-RES ovarian) of 1660 nM, a TGI (NCI/ADR-RES ovarian) of 4.45 µM and a GI50 (LOX IMVI melanoma) of 450 nM. For the same compound, the TGI (LOX IMVI melanoma) was 1780 nM, the GI50 (CAKI-1 renal) was 446 nM and the TGI (CAKI-1 renal) was 2950 nM. The GI50 (SN12C renal) was 367 nM, the TGI (SN12C renal) was 1290 nM and the GI50 (UACC-62 melanoma) was 1720 nM. The TGI (UACC-62 melanoma) was 5.95 µM, the GI50 (UO-31 renal) was 1230 nM and the TGI (UO-31 renal) was over 100 µM. It also gave a GI50 (MOLT-4 leukemia) of 26.7 nM, a TGI (MOLT-4 leukemia) of 358 nM and a GI50 (NCI-H522 lung) of 1660 nM. For the same compound, the TGI (NCI-H522 lung) was 9.29 µM, the GI50 (BT-549 breast) was 1070 nM and the TGI (BT-549 breast) was 7.11 µM. The GI50 (K-562 leukemia) was 529 nM, the TGI (K-562 leukemia) was 2650 nM and the GI50 (UACC-257 melanoma) was 4.62 µM. It also gave a TGI (UACC-257 melanoma) of 23.1 µM, a GI50 (T-47D breast) of 5.78 µM and a TGI (T-47D breast) of 21.1 µM. For the same compound, the GI50 (HOP-92 NSCLC) was 950 nM and the TGI (HOP-92 NSCLC) was 7.57 µM.
